The text below walks through data of article PMC4836696 (PLoS ONE, 2016).

SMILES strings stand for the structures. “Also recorded” adds a separate entry of the source.

Data set [1] deals with subjects with T2D taking liraglutide. In words: Clinical study Part B: pharmacodynamics (weight, glucose, HbA1c). The class given is in vivo, human. The note with it: Part B: liraglutide alone titrated to 1.8 mg/day, mean ± SD. An excerpt: In all three Parts, to reduce the risk of gastrointestinal adverse events subjects started by taking 15 g of GSK457 daily, in 2 divided doses, and were up−titrated to 30g daily (Day 4) and then to a maximum dose of 40 g daily at Day 7. Subjects unable to tolerate doses of 30 g or 40 g were permitted to reduce their dose to tolerated levels, with a minimum tolerated dose of 15 g required to remain in the study. A unit dose of 5 g of GSK457 consisted of three capsules of oleic acid and a separate sachet of powder for each of the three powder compounds. […]
In Parts B and C, there were additional clinic visits on Days 7, 14, and 28 for safety evaluations, potential modification of dose (Days 7 and 14), and dispensing of study medications. Subjects monitored their capillary blood glucose levels twice a day using a wireless-enabled glucometer and daily weights were monitored using a wireless enabled weighing instrument (see S3 Materials and Methods for more information). […]
Venous blood samples were collected for PD and PK analysis in K^+ EDTA tubes and rapidly placed on ice until centrifuged at 4°C for 10 minutes. Plasma was stored at -70°C until analyzed. Samples for clinical chemistry and hematology were measured by the local certified laboratory. Plasma samples were analyzed for glucose, insulin and leptin by BioAgilytix Labs (Durham, NC, USA). […]

For data set [2] the test system is unchanged. The data set is described as follows: Clinical study Part B: safety and tolerability. It counts as in vivo, human. An excerpt:
A unit dose of 5 g of GSK457 consisted of three capsules of oleic acid and a separate sachet of powder for each of the three powder compounds. The powders were mixed by the subject into 12 oz of flavored (Mio™ pomegranate/berry flavoring) water in a shaker bottle and consumed just prior to breakfast and dinner. The capsules could be taken with this drink or separately with water. The matching placebo consisted of starch and microcrystalline cellulose in identical sachets and capsules.

A short description of data set [3]: Clinical study Part B: plasma liraglutide pharmacokinetics.
Data set [4] is described as follows: Clinical study Part A: plasma metformin pharmacokinetics. The conditions noted are these: for metformin Cmax / metformin AUC(0−10): geometric mean (CV%); for metformin Tmax: median (range).
For data set [5] the following is noted: protocol risk table; cited from earlier work.
Data set [6] can be described thus: Clinical study Part C: plasma metformin pharmacokinetics. The class given is in vivo, human. The conditions noted are these: Part C: metformin taken 1 hour before GSK457; comparative plot, no statistics. On the procedure:
All samples were shipped frozen on dry ice and stored at approximately -20 °C until analysed. […] The eluate was then further diluted with 1.00 mL of 2:98 formic acid / acetonitrile vol/vol, prior to being analyzed by HPLC with MS/MS detection.

Data set [7] deals with subjects with T2D taking metformin. The data set is described as follows: Clinical study Part C: pharmacodynamics (weight, glucose, HbA1c). The class given is in vivo, human. The conditions noted are these: Part C: usual metformin alone, mean ± SE. The source says: In all three Parts, to reduce the risk of gastrointestinal adverse events subjects started by taking 15 g of GSK457 daily, in 2 divided doses, and were up-titrated to 30g daily (Day 4) and then to a maximum dose of 40 g daily at Day 7. Subjects unable to tolerate doses of 30 g or 40 g were permitted to reduce their dose to tolerated levels, with a minimum tolerated dose of 15 g required to remain in the study. A unit dose of 5 g of GSK457 consisted of three capsules of oleic acid and a separate sachet of powder for each of the three powder compounds. […] Subjects monitored their capillary blood glucose levels twice a day using a wireless-enabled glucometer and daily weights were monitored using a wireless enabled weighing instrument (see S3 Materials and Methods for more information). […] Plasma was stored at -70°C until analyzed. Samples for clinical chemistry and hematology were measured by the local certified laboratory. Plasma samples were analyzed for glucose, insulin and leptin by BioAgilytix Labs (Durham, NC, USA). Glucose was measured using a Glucose 2300 STAT Plus Glucose Analyzer with the glucose/lactate standard, catalog number 2747 (Yellow Springs Instrument Co, OH, USA). […] An estimation approach was used where point estimates for treatment differences and corresponding confidence intervals were determined. […]

The subject of data set [8] is patients. The note with it: cited from earlier work.
Data set [9] has as its system DIO C57BL/6NTac mice. In words: Chronic 28-day weight loss study in DIO mice. It counts as in vivo, mouse.
[10] abbreviates: subjects later randomized to GSK457.
Setting [11] is: subjects later randomized to placebo.
Where [12] appears, read: Part B, GSK457 group, Day 42, median (range), n=11.
Where [13] appears, read: Part B, with GSK457, data from 1 outlier excluded.
The mark [14] stands for this setting: Part A healthy subjects, co-administration with GSK457.
[15] abbreviates: Part A, single 500 mg IR metformin, GSK457 group, Day 1 (metformin alone), n=11.
Where [16] appears, read: Part A, single 500 mg IR metformin, GSK457 group, Day 42 (with GSK457), n=10.
[17] abbreviates: Part A, single 500 mg IR metformin, Placebo group, Day 1, n=4.
Setting [18] is: Part A, single 500 mg IR metformin, Placebo group, Day 42, n=4.
[19] abbreviates: overdose, ref GLUCOPHAGE (Metformin) Package Insert.

In the case of `CCCCCCCCCCCCCCCC(=O)N[C@@H](CCC(=O)NCCCC[C@H](NC(=O)[C@H](C)NC(=O)[C@H](C)NC(=O)[C@H](CCC(N)=O)NC(=O)CNC(=O)[C@H](CCC(=O)O)NC(=O)[C@H](CC(C)C)NC(=O)[C@H](Cc1ccc(O)cc1)NC(=O)[C@H](CO)NC(=O)[C@H](CO)NC(=O)[C@@H](NC(=O)[C@H](CC(=O)O)NC(=O)[C@H](CO)NC(=O)[C@@H](NC(=O)[C@H](Cc1ccccc1)NC(=O)[C@@H](NC(=O)CNC(=O)[C@H](CCC(=O)O)NC(=O)[C@H](C)NC(=O)[C@@H](N)Cc1cnc[nH]1)[C@@H](C)O)[C@@H](C)O)C(C)C)C(=O)N[C@@H](CCC(=O)O)C(=O)N[C@@H](Cc1ccccc1)C(=O)N[C@H](C(=O)N[C@@H](C)C(=O)N[C@@H](Cc1c[nH]c2ccccc12)C(=O)N[C@@H](CC(C)C)C(=O)N[C@H](C(=O)N[C@@H](CCCNC(=N)N)C(=O)NCC(=O)N[C@@H](CCCNC(=N)N)C(=O)NCC(=O)O)C(C)C)[C@@H](C)CC)C(=O)O` [liraglutide], the “change in mean body weight during the 12-week liraglutide Stabilization phase” value in data set [1] (setting [10]) is -1.29 kg; in data set [1] (setting [11]) it was -2.55 kg. For the same compound, the “most common drug-related adverse events during the Stabilization period” value in data set [2] (Part B: liraglutide alone, 12 weeks, titrated to 1.8 mg/day) is “nausea, diarrhea, decreased appetite, and headache”. In addition, in data set [2] (Part B: while subjects were on liraglutide, no symptoms or signs of pancreatitis, no clear differentiation GSK457 vs placebo), the circulating lipase/amylase concentrations entry is listed as “Asymptomatic elevations”. In addition, the “effect of co-administration with GSK457 on liraglutide plasma exposures” value in [3] (Part B T2D patients, all data) was “did not affect liraglutide plasma exposures; also recorded: no effect”. Besides, in data set [3] (Part B, GSK457 group, Day 42 (with GSK457), geometric mean (CV%), n=11), the “liraglutide AUC(0−t)” value was 1266 (79.4) ng.h/mL. Also, the “liraglutide Tlast” value in data set [3] (setting [12]) was 24.02 (23.8−24.3) h; in data set [3] (Part B, GSK457 group, Day -1, median (range), n=12), 23.88 (23.0−25.9) h; in data set [3] (Part B, Placebo group, Day 42, median (range), n=5), 23.80 (23.8−24.1) h. For the same compound, the “liraglutide Tmax” value in data set [3] (setting [12]) is given as 9.98 (0.8−23.8) h. The “increase of liraglutide AUC(0−t)” value in data set [3] (setting [13]) is 28%. In addition, the “increase of liraglutide Cmax” value in [3] (setting [13]) was determined as 22%.
Consider `CN(C)C(=N)N=C(N)N` [metformin], for which, in data set [4] (Part A healthy subjects, by GSK457), the “reduction of metformin systemic exposure” value is on record as ~ 30%. In addition, the “decrease of metformin AUC(0−10 h)” value in data set [4] (setting [14]) is listed as 32%. In data set [4] (setting [14]), the “decrease of metformin Cmax” value was 34%. Besides, the “metformin Cmax” value in data set [4] (Part A healthy subjects, single 500 mg IR metformin before breakfast, Placebo group, Day 1, plasma, HPLC-MS/MS, n=4) was 682 (19.0) ng/mL; in data set [4] (Part A, single 500 mg IR metformin, GSK457 group, Day 1 (metformin alone, GSK457 started at dinner), n=11), 576 (24.4) ng/mL; in data set [4] (Part A, single 500 mg IR metformin, GSK457 group, Day 42 (taken together with GSK457 after 6 weeks), n=10) it was 374 (31.2) ng/mL; in data set [4] (setting [18]), 860 (18.8) ng/mL. The “metformin AUC(0−10)” value is given as 3403 (26.4) ng.h/mL in data set [4] (setting [15]), 2232 (38.6) ng.h/mL in [4] (setting [16]), 4347 (19.1) ng.h/mL in [4] (setting [17]) and 5082 (21.1) ng.h/mL in data set [4] (setting [18]). Moreover, the “metformin Tmax” value in data set [4] (setting [15]) is listed as 2.00 (1.00−4.00) h; in [4] (setting [16]), 2.00 (2.00−5.50) h; in data set [4] (setting [17]), 3.01 (2.00−4.03) h; in [4] (setting [18]) it was 4.00 (2.00−4.03) h. Further, the “fraction of a dose that appears in the feces” value in data set [5] is recorded as 20-30%. In [6], the “effect on metformin AUC(0−10 h)” value is given as “slight decrease”. Moreover, in data set [6], the “effect on metformin Cmax” value was “no apparent effect”. The “change in mean body weight during the 4-week metformin Stabilization phase” value in [7] (setting [10]) is -1.62 kg; in [7] (setting [11]), -1.17 kg. In addition, in [8] (human, in vivo), the “patients with decrease to subnormal serum vitamin B12 levels” value is “approximately 7%”. Further, the “hypoglycemia in metformin overdose cases” value in data set [8] (setting [19]) was “approximately 10 % of cases”. For the same compound, the “lactic acidosis in metformin overdose cases” value in [8] (setting [19]) is reported as “approximately 32%”.
Turning to `CCCCCCCC/C=C\CCCCCCCC(=O)O` [oleic acid], in data set [9] (agents dosed individually), the “effect on endocrine hormones” value is “little effect”. Besides, the “serum chemistry, effect of single agents” value in data set [9] (single GRAS agent in chow) is on record as “only a small beneficial effect”. In addition, the “serum glucose vs. DIO vehicle” value in [9] (single agent in chow, p < 0.05) is listed as “lowered glucose”.
